Consider one compound from US12234466B2, “Aspergillus microorganism carrying disruptions of multiple genes and a method of producing thereof” (KIKKOMAN CORPORATION, priority 2018, dated 2025).

For test [1], the system named is Aspergillus sojae NBRC4239 strain. Description: Growth on potato dextrose agar containing 5-FAA and 1 mM tryptophan. The format is cell-based. Here is the method: (§1) The AstrpC-disrupted strain and Aspergillus sojae NBRC4239 strain as a control were inoculated onto the plates of potato dextrose agar medium (Nissui Pharmaceutical Co., Ltd.) containing 0.04% (w/v) 5-FAA and 1 mM tryptophan, respectively. The plates were incubated at 30° C. for 4 days. […] In addition, 5-FAA (5-fluoroanthranilic acid; Tokyo Chemical Industry Co., Ltd.) was prepared to become a 10% solution using ethanol, and the solution was added to the medium to ensure that the final concentration became the above-mentioned concentration.
(§2) When the concentration of 5-FAA was changed to 0.02% (w/v), both AstrpC-disrupted and NBRC4239 strains grew on the plates.

Test [2] relates to AstrpC-disrupted strain. Described as above. The format is cell-based, Aspergillus sojae. Here is the method:
as §1, §2

Test [3] has as its system AotrpC-disrupted strain. Description: Growth on Sabouraud Dextrose Agar containing 5-FAA and 1 mM tryptophan. The format is cell-based, Aspergillus oryzae. Here is the method: (§3) The AotrpC-disrupted strain and Aspergillus oryzae RIB40 strain as a control were inoculated onto the plates of Sabouraud Dextrose Agar medium (BD) containing 0.12% (w/v) 5-FAA and 1 mM tryptophan, respectively. The plates were incubated at 30° C. for 4 days.
(§4) When the concentration of 5-FAA was changed to 0.1% (w/v), both the AotrpC-disrupted and RIB40 strains grew on the plates.

Test [4] concerns Aspergillus oryzae RIB40 strain. The description is as above. The format is cell-based. How it is done: as §3, §4
The mark [5] stands for this setting: 0.04% (w/v) 5-FAA, 30° C., 4 days.
The mark [6] stands for this setting: 0.12% (w/v) 5-FAA, 30° C., 4 days.

Each structure is given as a SMILES string.

For the compound `Nc1ccc(F)cc1C(=O)O` [5-FAA, 5-fluoroanthranilic acid], the “growth of NBRC4239 strain” value in test [1] (0.02% (w/v) 5-FAA) is reported as “grew”; in test [1] (setting [5]) it was “did not grow at all”. In addition, the “growth of AstrpC-disrupted strain” value in test [2] (0.02% (w/v) 5-FAA) and in test [2] (setting [5]) was “grew” each time. The “growth of AotrpC-disrupted strain” value in test [3] (0.1% (w/v) 5-FAA) and in test [3] (setting [6]) was “grew” throughout. For the same compound, the “growth of RIB40 strain” value in test [4] (0.1% (w/v) 5-FAA) was “grew”; in test [4] (setting [6]) it was “did not grow at all”.
